In PMC12298827, “Subchronic Toxicities of Four Per- and Polyfluoroalkyl Substances (PFASs) by Oral Exposure in Sprague–Dawley Rats” (Toxics, 2025):

System: male and female Sprague–Dawley rats
Test: 90-day subchronic oral gavage toxicity study
Type: in vivo, rat
Set-up: key to NOEL, absolute liver weight increase / LOEL, absolute liver weight increase / NOEL, relative kidney weight increase / LOEL, relative kidney weight increase / NOEL, absolute kidney weight increase / LOEL, absolute kidney weight increase / NOEL, relative liver weight increase / LOEL, relative liver weight increase: NR: no response, no statistically significant dose-dependent changes
Method: Subchronic (90-day) studies were performed in accordance with current U.S. EPA’s Toxic Substances Control Act Good Laboratory Practice (GLP) Standards, with the following two general exceptions to the GLP guidelines: Analysis of the dose formulations was conducted according to RTI-approved Standard Operating Procedures, and corn oil (the vehicle) was not characterized (certificate of analysis from the vendor is available in the appendices to the final reports). Male and female Sprague–Dawley rats (five dose levels plus a control, n = 10/sex/dose group, corn oil vehicle dose volume of 3 mL/kg; oral gavage) were used in these studies, and the rats were euthanized on SD 91. The dose levels for PFHI were 0, 12.5, 25, 50, 100, and 200 mg/kg-day. The dose levels for MHFPK were 0, 18.8, 37.5, 75, 150, and 300 mg/kg-day. The dose levels for PFNAC were 0, 0.1, 0.3, 1.0, 3.0, and 10 mg/kg-day for male rats and 0, 0.3, 1.0, 3.0, 10, and 30 mg/kg-day for female rats. For CTFPA, the dose levels were 0, 1.9, 3.8. 7.5, 15, and 30 mg/kg-day for male rats and 0, 6.3, 12.5, 25, 50, and 100 mg/kg-day for female rats. For each PFAS, three batches of dosing solution were prepared. The time between the batch preparation of the dosing solutions ranged between 29 and 39 days. Blood samples were collected from all the rats at termination for serum chemistry, hematology, coagulation, and the analysis of the parent PFAS chemical in the plasma. In vivo data collection and further detail on the endpoints examined postmortem are described below.
The rats were observed twice daily for morbidity and mortality throughout the study period. At least once prior to randomization to test groups and weekly thereafter, the rats were physically examined, and bodyweights were obtained. Feed consumption was quantified weekly starting on SD 1.
Neurotoxicity was evaluated using the functional observational battery (FOB) and measuring locomotor activity (LMA) 2–4 h post dosing on SDs 78–80 and 80–84, respectively. For both the 14- and 90-day studies, an ophthalmologic examination was conducted prior to randomization and near the end of the study, using indirect ophthalmoscopy and slit–lamp biomicroscopy (as needed) after the administration of a mydriatic solution.
Hematology, biochemistry, and coagulation endpoints were measured at the termination of the study. A Siemens Advia 2120i hematology analyzer (Siemens Healthineers, Erlangen, Germany) was used to measure (or calculate) the parameters related to the complete blood count, leukocyte differential count, and reticulocyte count. The hematology parameters are listed and described in Table 2. The prothrombin time […] and activated partial thromboplastin time (APTT) were measured using an Instrumentation Laboratory (Bedford, MA, USA) ACL Elite Pro coagulation analyzer (laser–nephelometric centrifugal method).
At necropsy, the rats were visually examined for external abnormalities and organ weights (absolute and relative to the BW and brain weight), which were recorded (paired organs weighed together). The tissues were preserved in 10% neutral buffered formalin (NBF), except for the ocular tissues, testes, and epididymides, which were preserved in modified Davidson’s fixative and later transferred to 10% NBF. Bone marrow smears were prepared from the femurs, and the slides were air-dried, fixed in methanol, stained, and stored at room temperature for possible future evaluation. The preserved tissues were embedded in paraffin, sectioned, stained with hematoxylin and eosin, and examined by a board-certified veterinary pathologist.
Statistical analysis was performed using Provantis™ Version 10 or greater (Instem LSS, Limited; Stone, Staffordshire, UK). Differences among the treatment groups compared to the control were evaluated using one-way analysis of variance (ANOVA) if the underlying assumptions of a normal distribution (Shapiro–Wilk test) and the homogeneity of the variance (Levene’s test) were satisfied. […]

## O=C(O)C(F)(Cl)C(F)(F)F (centres unmarked) [CTFPA, 2-Chloro-2,3,3,3-tetrafluoropropanoic acid]
female, 100 mg/kg-day
  Liver Weight: 11.31 g
  Liver/Body Weight: 3.57%
  Liver/Brain Weight: 575%
  MPV: 8.01 ± 0.50 fL
  PT: 14.22 s
  Total BW change: 107.34 g
  Total Food Consumed: 1615 g
male
  BMDL, absolute liver weight increase: 11.6 mg/kg-day
  LOEL, absolute kidney weight increase: NR
  LOEL, absolute liver weight increase: 7.5 mg/kg-day
  LOEL, relative kidney weight increase: NR
  LOEL, relative liver weight increase: 3.8 mg/kg-day
  NOEL, absolute kidney weight increase: NR
  NOEL, absolute liver weight increase: 3.8 mg/kg-day
  NOEL, relative kidney weight increase: NR
  NOEL, relative liver weight increase: 1.9 mg/kg-day
male, 1.9 mg/kg-day
  % BW Gain: 125.06%
  % Diff, % BW Gain: -0.26%
  % Diff, Total BW change: -0.03%
  % Diff, Total Food Consumed: 0.81%
  A/G: 0.95±0.07 ratio
  ALB: 3.35 ± 0.17 g/dL
  ALPi: 139.8±40.4 U/L
  APTT: 18.83 s
  BUN: 14.8 ± 1.8 mg/dL
  CHOL: 84.4 ± 9.8 mg/dL
  GLOB: 3.52 ± 0.20 g/dL
  GLUC: 170.1 ± 32.6 mg/dL
  HCT: 50.28±1.93%
  HGB: 15.58 ± 0.65 g/dL
  Kidney Weight: 3.12 g
  Kidney/Body Weight: 0.56%
  Kidney/Brain Weight: 150%
  Liver Weight: 14.47 g
  Liver/Body Weight: 2.58%
  Liver/Brain Weight: 697%
  MPV: 7.50 ± 0.37 fL
  PT: 15.55 s
  Total BW change: 316.63 g
  Total Food Consumed: 2084 g
male, 3.8 mg/kg-day
  % BW Gain: 137.76%
  % Diff, % BW Gain: 9.87%
  % Diff, Total BW change: 11.95%
  % Diff, Total Food Consumed: 9.08%
  A/G: 0.93±0.20 ratio
  ALB: 3.29 ± 0.48 g/dL
  ALPi: 131.8±40.1 U/L
  APTT: 16.21 s
  BUN: 15.6 ± 2.5 mg/dL
  CHOL: 79.3 ± 17.3 mg/dL
  GLOB: 3.65 ± 0.66 g/dL
  GLUC: 173.7 ± 32.5 mg/dL
  HCT: 49.12±2.10%
  HGB: 15.20 ± 0.71 g/dL
  Kidney Weight: 3.35 g
  Kidney/Body Weight: 0.56%
  Kidney/Brain Weight: 152%
  Liver Weight: 17.18 g
  Liver/Body Weight: 2.85%
  Liver/Brain Weight: 780%
  MPV: 7.79 ± 0.46 fL
  PT: 15.25 s
  Total BW change: 354.57 g
  Total Food Consumed: 2255 g
male, 7.5 mg/kg-day
  % BW Gain: 145.16%
  % Diff, % BW Gain: 15.76%
  % Diff, Total BW change: 18.72%
  % Diff, Total Food Consumed: 13.5%
